Reference: ChEMBL document CHEMBL4715785, “Pyrazolo[1,5a]pyrimidines as a new class of FUSE binding protein 1 (FUBP1) inhibitors” (Bioorg Med Chem, 2016)
pIC50: −log10 of the molar value. Activity calls are given as the source filed them. The calls are words filed in the database; no cut-off is given here.

Columns and labels:
[1] = target: T1, Far upstream element-binding protein 1 (Homo sapiens, UniProt Q96AE4); experiment: Inhibition of 6xHis-tagged human FUBP1 expressed in HEK293T cells assessed as reduction in FUBP1 interaction with biotinylated NLC chip immobilized FUSE p21 oligonucleotide incubated for 21 hrs by SPR analysis; details: for IC50: hek293t; for pIC50: read-out: IC50
T1 sequence (Q96AE4 whole entry): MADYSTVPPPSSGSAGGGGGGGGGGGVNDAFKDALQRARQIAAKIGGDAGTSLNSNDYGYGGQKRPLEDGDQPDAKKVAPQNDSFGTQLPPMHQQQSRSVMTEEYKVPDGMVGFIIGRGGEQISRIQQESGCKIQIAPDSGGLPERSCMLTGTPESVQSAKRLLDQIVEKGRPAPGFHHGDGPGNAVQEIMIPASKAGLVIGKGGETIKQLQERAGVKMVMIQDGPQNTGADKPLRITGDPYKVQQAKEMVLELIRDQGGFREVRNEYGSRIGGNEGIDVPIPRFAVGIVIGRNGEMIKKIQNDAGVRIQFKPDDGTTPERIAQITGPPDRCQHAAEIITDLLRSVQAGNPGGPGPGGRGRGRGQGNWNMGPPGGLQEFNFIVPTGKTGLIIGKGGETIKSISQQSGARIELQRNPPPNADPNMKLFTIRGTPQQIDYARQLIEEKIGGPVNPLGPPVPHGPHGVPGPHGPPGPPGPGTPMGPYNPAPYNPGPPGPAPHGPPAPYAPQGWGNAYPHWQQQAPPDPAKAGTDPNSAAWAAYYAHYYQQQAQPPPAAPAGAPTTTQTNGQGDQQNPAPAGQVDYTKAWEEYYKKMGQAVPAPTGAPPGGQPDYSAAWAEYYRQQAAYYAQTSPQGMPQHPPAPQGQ

Hep 3B2 [2] = experiment: Cell cycle arrest in human Hep3B cells assessed as accumulation at sub-G1 phase at 20 uM measured after 24 hrs by propidium iodide and RNase A staining based Nicoletti assay (reference value: 2.5 %); assay type: functional
Hep 3B2 [3] = experiment: Decrease in cell expansion in human Hep3B cells at 10 to 20 uM measured after 48 to 72 hrs by Neubauer chamber method; assay type: functional, cell-based; details: dose 10-20 µM, time 48-72 hrs
Hep 3B2 [4] = experiment: Induction of cell death in human Hep3B cells assessed as increase in number of dead cells at 10 to 20 uM measured after 24 hrs; assay type: functional, cell-based; details: dose 10-20 µM
HepG2 [5] = experiment: Induction of cell death in human HepG2 cells assessed as increase in number of dead cells at 10 to 20 uM measured after 72 hrs; assay type: functional, cell-based; details: dose 10-20 µM
Huh-7 = experiment: Decrease in cell expansion in human Huh-7 cells at 10 to 20 uM measured after 24 hrs by Neubauer chamber method; assay type: functional, cell-based; details: dose 10-20 µM
Hep 3B2 [6] = experiment: Cell cycle arrest in human Hep3B cells assessed as accumulation at sub-G1 phase at 10 uM measured after 24 hrs by propidium iodide and RNase A staining based Nicoletti assay (reference value: 2.5 %); assay type: functional
HepG2 [7] = experiment: Decrease in cell expansion in human HepG2 cells at 10 to 20 uM measured after 48 to 72 hrs by Neubauer chamber method; assay type: functional, cell-based; details: dose 10-20 µM, time 48-72 hrs

Row | SMILES | IC50 [1] | further results
1 | O=[N+]([O-])c1cccc(-c2cc(C(F)(F)F)n3nc(-c4ccco4)cc3n2)c1 | Not Active | 
2 | FC(F)(F)c1cc(-c2cccs2)nc2cc(-c3ccco3)nn12 | Not Active | 
3 | COc1ccc(-c2cc(C(F)(F)F)n3nc(-c4ccco4)cc3n2)cc1 | Not Active | 
4 | COc1ccc(-c2cc(C(F)(F)F)n3nc(-c4ccccc4)cc3n2)cc1OC | Not Active | 
5 | COc1ccc(-c2cc(C(F)(F)F)n3nc(-c4cccs4)cc3n2)cc1OC |  | Activity (Hep 3B2 [2]): 16.1%; Activity (Hep 3B2 [3]): Active; Activity (Hep 3B2 [4]): Active; Activity (HepG2 [5]): inactive; Activity (Huh-7): Active; Activity (Hep 3B2 [6]): 7.7%; Activity (HepG2 [7]): Active
6 | Cc1cc(C(F)(F)F)n2nc(-c3cccs3)cc2n1 | Not Active | 
7 | FC(F)(F)c1cc(-c2ccc3c(c2)OCO3)nc2cc(-c3ccco3)nn12 | Not Active | 
8 | FC(F)(F)c1cc(-c2ccncc2)nc2cc(-c3cccs3)nn12 |  | pIC50 [1]: < 4.00
9 | COc1ccc(-c2cc(C(F)(F)F)n3nc(-c4cccs4)cc3n2)cc1 |  | pIC50 [1]: < 4.00
10 | FC(F)(F)c1cc(-c2ccc(Cl)cc2)nc2cc(-c3cccs3)nn12 |  | pIC50 [1]: < 4.00
11 | FC(F)(F)c1cc(-c2cccnc2)nc2cc(-c3cccs3)nn12 |  | pIC50 [1]: < 4.00
12 | FC(F)(F)c1cc(-c2ccc3ccccc3c2)nc2cc(-c3ccco3)nn12 | Not Active | 
13 | FC(F)(F)c1cc(-c2cccs2)nc2cc(-c3cccs3)nn12 |  | pIC50 [1]: < 4.00
14 | FC(F)(F)c1cc(-c2ccco2)nc2cc(-c3ccco3)nn12 | Not Active | 
15 | FC(F)(F)c1cc(-c2ccncc2)nc2cc(-c3ccco3)nn12 | Not Active | 
16 | FC(F)(F)c1cc(-c2nccs2)nc2cc(-c3cccs3)nn12 | Not Active | 
17 | FC(F)(F)c1cc(-c2ccc3c(c2)CCC3)nc2cc(-c3ccco3)nn12 | Not Active | 
18 | COc1ccc(-c2cc(C(F)(F)F)n3nc(C4CC4)cc3n2)cc1OC |  | pIC50 [1]: 3.99
19 | FC(F)(F)c1cc(-c2ccccc2)nc2cc(-c3cccs3)nn12 |  | pIC50 [1]: < 4.00
20 | COc1ccc(-c2cc(C(F)(F)F)n3nc(C(C)(C)C)cc3n2)cc1OC | Not Active | 

Second part, led by results:

Row | IC50 [1] | SMILES | further results
21 | Not Active | FC(F)(F)c1cc(-c2ccccn2)nc2cc(C3CC3)nn12 | 
22 | Not Active | FC(F)(F)c1cc(-c2ccc(Cl)cc2)nc2cc(-c3ccco3)nn12 | 
23 | Not Active | Fc1ccc(-c2cc(C(F)(F)F)n3nc(-c4cccs4)cc3n2)cc1 | 
24 | Not Active | FC(F)(F)c1cc(-c2cccc(Cl)c2)nc2cc(-c3cccs3)nn12 | 
25 | Not Active | COc1ccc(-c2cc(C(F)(F)F)n3nc(-c4ccc(Cl)cc4)cc3n2)cc1OC | 
26 | Not Active | Cc1cc2nc(-c3ccncc3)cc(C(F)(F)F)n2n1 | 
27 | Not Active | FC(F)(F)c1cc(-c2ccc(Cl)cc2)nc2cc(C3CC3)nn12 | 
